Earlier results, collected in publication PMC7904743, “WIDOCK: a reactive docking protocol for virtual screening of covalent inhibitors” (Journal of Computer-Aided Molecular Design, 2021).
Read-outs that look alike come from different tables or passages of the source.

Tests used:
[1] = test system: OTUB2; settings: experimental actives if % labeling higher than 50%, cited from earlier work
[2] = test system: NUDT7; settings: protein labeling at 200 μM; experimental actives if % labeling higher than 50%; cited from earlier work
[3] = thiol reactivity, cited from earlier work
[4] = natural log of average rate constant k
[5] = natural logarithm of average rate constant
[6] = natural log of average rate constant
[7] = natural log of average kinetic rate constant

Compound | OTUB2 % labeling [1] | NUDT7 % labeling [2] | ln(avg k) [3, 4] | ln(avg k) [3, 5] | ln(avg k) [3, 6] | OTUB2 % labeling ([1]; OTUB2 protein labeling) | ln(avg k) [3, 7]
O=C(CCl)NC(=O)NCC1COc2ccccc2O1 (stereo not shown) [PCM-0102092, O=C(CCl)NC(=O)NCC1COc2ccccc2O1] | 0% | 0% | -15.940 | -15.940 | – | – | –
O=C(CCl)N1CCN(c2ncccn2)CC1 [PCM-0102093, O=C(CCl)N1CCN(c2ncccn2)CC1] | 0% | 0% | -15.547 | -15.547 | – | – | –
O=C(CCl)N1CCN(c2ccc([N+](=O)[O-])cc2)CC1 [PCM-0102094, O=C(CCl)N1CCN(c2ccc([N+](=O)[O-])cc2)CC1] | 0% | 27% | -15.009 | -15.009 | – | – | –
Cc1csc(CC(=O)NNC(=O)CCl)n1 [PCM-0102095, Cc1csc(CC(=O)NNC(=O)CCl)n1] | 51% | 0% | -16.857 | -16.857 | – | – | –
CC(NC(=O)CCl)c1ccc(Cl)c(Cl)c1 (stereo not shown) [PCM-0102096, CC(NC(=O)CCl)c1ccc(Cl)c(Cl)c1] | 26% | 51% | -16.200 | -16.200 | – | – | –
O=C(CCl)Nc1cccc2ncccc12 [PCM-0102097, O=C(CCl)Nc1cccc2ncccc12] | 42% | 0% | -16.130 | -16.130 | – | – | –
Cc1ccc([N+](=O)[O-])cc1NC(=O)CCl [PCM-0102098, Cc1ccc([N+](=O)[O-])cc1NC(=O)CCl] | 33% | 12% | -15.712 | -15.712 | – | – | –
Cc1c(C#N)c(NC(=O)CCl)n(-c2ccc(F)cc2)c1C [PCM-0102099, Cc1c(C#N)c(NC(=O)CCl)n(-c2ccc(F)cc2)c1C] | 0% | 17% | -15.940 | -15.940 | – | – | –
O=C(CCl)Nc1ccc(-c2nnc3n2CCCCC3)cc1 [PCM-0102101, O=C(CCl)Nc1ccc(-c2nnc3n2CCCCC3)cc1] | 28% | 0% | -15.815 | -15.815 | – | – | –
Cc1ccc(C2=NN(C(=O)CCl)C(c3ccco3)C2)o1 (stereo not shown) [PCM-0102102, Cc1ccc(C2=NN(C(=O)CCl)C(c3ccco3)C2)o1] | 0% | 20% | -14.412 | -14.412 | – | – | –
CCN1CCC(NC(=O)CCl)CC1 [PCM-0102103, CCN1CCC(NC(=O)CCl)CC1] | 0% | 0% | -15.455 | -15.455 | – | – | –
O=C(CCl)Nc1ccc2c(c1)OC1(CCCCC1)O2 [PCM-0102104, O=C(CCl)Nc1ccc2c(c1)OC1(CCCCC1)O2] | 47% | 8% | -15.658 | -15.658 | – | – | –
CCN(C(=O)CCl)C1CCS(=O)(=O)C1 (stereo not shown) [PCM-0102105, CCN(C(=O)CCl)C1CCS(=O)(=O)C1] | 0% | 0% | -15.384 | -15.384 | – | – | –
CC(NC(=O)CCl)c1ccccc1Cl (stereo not shown) [PCM-0102110, CC(NC(=O)CCl)c1ccccc1Cl] | 25% | 0% | -16.453 | -16.453 | – | – | –
O=C(CCl)Nc1ccc(Cl)c(Cl)c1 [PCM-0102112, O=C(CCl)Nc1ccc(Cl)c(Cl)c1] | 30% | 18% | -15.433 | -15.433 | – | – | –
Cc1nc(NC(=O)CCl)sc1C [PCM-0102124, Cc1nc(NC(=O)CCl)sc1C] | 0% | – | – | -15.463 | – | – | –
N#CC1(NC(=O)CCl)CCCC1 [PCM-0102136, N#CC1(NC(=O)CCl)CCCC1] | – | 0% | -15.612 | – | – | – | –
O=C(CCl)Nc1ccc2[nH]c(C(F)(F)F)nc2c1 [PCM-0102151, O=C(CCl)Nc1ccc2[nH]c(C(F)(F)F)nc2c1] | – | 7% | -15.575 | – | – | – | –
Cc1cccc([N+](=O)[O-])c1NC(=O)CCl [PCM-0102176, Cc1cccc([N+](=O)[O-])c1NC(=O)CCl] | – | 22% | -16.601 | – | – | – | –
O=C(CCl)N1N=C(c2ccco2)CC1c1cccs1 (stereo not shown) [PCM-0102182, O=C(CCl)N1N=C(c2ccco2)CC1c1cccs1] | 0% | – | – | -14.540 | – | – | –
O=C(CCl)Nc1ccc(N2CCCCCC2)cc1 [PCM-0102199, O=C(CCl)Nc1ccc(N2CCCCCC2)cc1] | – | 8% | -15.785 | – | – | – | –
Cc1cccc(N2CCN(C(=O)CCl)CC2)c1C [PCM-0102215, Cc1cccc(N2CCN(C(=O)CCl)CC2)c1C] | – | 29% | -15.103 | – | – | – | –
O=C(CCl)Nc1c(Cl)cccc1Cl [PCM-0102234, O=C(CCl)Nc1c(Cl)cccc1Cl] | – | 64% | -17.086 | – | – | – | –
CC1CCN(c2ccc(NC(=O)CCl)cc2)CC1 [PCM-0102235, CC1CCN(c2ccc(NC(=O)CCl)cc2)CC1] | – | 0% | -16.035 | – | – | – | –
Cc1ccccc1CNC(=O)CCl [PCM-0102253, Cc1ccccc1CNC(=O)CCl] | – | 0% | -16.467 | – | – | – | –
COc1ccc(NC(=O)NC(=O)CCl)cc1 [PCM-0102268, COc1ccc(NC(=O)NC(=O)CCl)cc1] | – | 0% | -15.795 | – | – | – | –
Cc1cc(N2CCCC2)ccc1NC(=O)CCl [PCM-0102301, Cc1cc(N2CCCC2)ccc1NC(=O)CCl] | – | 24% | -16.271 | – | – | – | –

Compound | OTUB2 % labeling [1] | NUDT7 % labeling [2] | ln(avg k) [3, 4] | ln(avg k) [3, 5] | ln(avg k) [3, 6] | OTUB2 % labeling ([1]; OTUB2 protein labeling) | ln(avg k) [3, 7]
O=C(CCl)NC1CCCCCCC1 [PCM-0102318, O=C(CCl)NC1CCCCCCC1] | – | 0% | -16.468 | – | – | – | –
Cc1cc(NC(=O)CCl)n(C)n1 [PCM-0102383, Cc1cc(NC(=O)CCl)n(C)n1] | – | 0% | -15.428 | – | – | – | –
Cc1ccc(NC(=O)CCl)c(Cl)c1 [PCM-0102408, Cc1ccc(NC(=O)CCl)c(Cl)c1] | – | 18% | -16.426 | – | – | – | –
O=C(CCl)Nc1nncs1 [PCM-0102427, O=C(CCl)Nc1nncs1] | 0% | – | – | -16.300 | – | – | –
CC1CCCCN1C(=O)CCl (stereo not shown) [PCM-0102434, CC1CCCCN1C(=O)CCl] | – | 0% | -15.958 | – | – | – | –
O=C(CCl)N1CCC2CCCCC2C1 (stereo not shown) [PCM-0102474, O=C(CCl)N1CCC2CCCCC2C1] | 0% | – | – | -15.859 | – | – | –
O=C(CCl)N1CCc2[nH]c3ccccc3c2C1 [PCM-0102591, O=C(CCl)N1CCc2[nH]c3ccccc3c2C1] | – | 22% | -14.023 | – | – | – | –
Cc1cc(NC(=O)CCl)ccc1Br [PCM-0102770, Cc1cc(NC(=O)CCl)ccc1Br] | – | 21% | – | – | -15.518 | – | –
O=C(CCl)N(C1CC1)C1CCCc2ccccc21 (stereo not shown) [PCM-0102774, O=C(CCl)N(C1CC1)C1CCCc2ccccc21] | – | – | – | – | – | 0% | -16.197
CC1CCC(N(C(=O)CCl)C2CC2)CC1 (stereo not shown) [PCM-0102792, CC1CCC(N(C(=O)CCl)C2CC2)CC1] | – | 13% | – | – | -16.001 | – | –
O=C(CCl)Nc1ccc2c(c1)OC1(CCCC1)O2 [PCM-0102801, O=C(CCl)Nc1ccc2c(c1)OC1(CCCC1)O2] | – | 10% | – | – | -15.785 | – | –
O=C(CCl)Nc1ccc(N2CCCCC2)nc1 [PCM-0102812, O=C(CCl)Nc1ccc(N2CCCCC2)nc1] | – | 14% | – | – | -15.797 | – | –
O=C(CCl)NC1CCC2(CC1)OCCO2 [PCM-0102820, O=C(CCl)NC1CCC2(CC1)OCCO2] | – | – | – | – | – | 13% | -16.468
CN(C)c1ccc(NC(=O)CCl)cc1 [PCM-0102859, CN(C)c1ccc(NC(=O)CCl)cc1] | – | 0% | – | – | -14.235 | – | –
O=C(CCl)NC1CCC(C(F)(F)F)CC1 (stereo not shown) [PCM-0102864, O=C(CCl)NC1CCC(C(F)(F)F)CC1] | – | 0% | – | – | -16.404 | – | –
C=CC(=O)Nc1nc(-c2ccc(O)cc2)cs1 [PCM-0102884, C=CC(=O)Nc1nc(-c2ccc(O)cc2)cs1] | – | – | – | – | – | 0% | -17.011
O=C(CCl)Nc1ccc2c(c1)NC(=O)CO2 [PCM-0102890, O=C(CCl)Nc1ccc2c(c1)NC(=O)CO2] | – | 8% | – | – | – | 32% | –
O=C(CCl)Nc1ccccc1O [PCM-0102907, O=C(CCl)Nc1ccccc1O] | – | 36% | – | – | -17.265 | – | –
Cc1ccccc1CN1CCCN(C(=O)CCl)CC1 [PCM-0102911, Cc1ccccc1CN1CCCN(C(=O)CCl)CC1] | – | 0% | – | – | – | 0% | –
CC(=O)NC1CCCN(C(=O)CCl)C1 (stereo not shown) [PCM-0102934, CC(=O)NC1CCCN(C(=O)CCl)C1] | – | 0% | – | – | -15.534 | – | –
CN(Cc1cccc(Cl)c1)C(=O)CCl [PCM-0102976, CN(Cc1cccc(Cl)c1)C(=O)CCl] | – | – | – | – | – | 0% | -16.166
O=C(CCl)Nc1nc(-c2ccco2)cs1 [PCM-0102979, O=C(CCl)Nc1nc(-c2ccco2)cs1] | – | 25% | – | – | -15.876 | – | –
CC(NC(=O)CCl)C(=O)O (stereo not shown) [PCM-0102990, CC(NC(=O)CCl)C(=O)O] | – | 0% | – | – | -18.115 | – | –
O=C(CCl)NCC#Cc1ccccc1 [PCM-0103007, O=C(CCl)NCC#Cc1ccccc1] | – | – | – | – | – | 60% | -16.727
Cc1ccc(NC(=O)CCl)c(C)c1 [PCM-0103041, Cc1ccc(NC(=O)CCl)c(C)c1] | – | 0% | – | – | -16.644 | – | –
Cc1ccc(CN2CCCN(C(=O)CCl)CC2)cc1 [PCM-0103056, Cc1ccc(CN2CCCN(C(=O)CCl)CC2)cc1] | – | 0% | – | – | – | 0% | –
